Values quoted from earlier work as cited in patent publication US6818672B1, “Treating endometriosis or infertility, or improving fertility” (Columbia Laboratories, Inc., priority 1999, dated 2004).

Experiments:
[1] = tested on: myometrial activity, uterine blood flow, lower abdominal pain
[2] = intravenous administration

SMILES: CC(C)(C)NCC(O)c1cc(O)cc(O)c1 (centres unmarked) [terbutaline, 5-[2-[(1,1-dimethylethyl)amino]-1-hydroxyethyl]-1,3-benzenediol]
- Bioavailability (after oral administration, extensive first-pass sulphation): 15 and 20%
- Decrease of bioavailability by concomitant food intake (oral administration with concomitant food intake): 30%
- Duration of effect of each spray ([1]; terbutaline inhalation, severe pain in essential dysmenorrhea): 1 h
- Effect on myometrial activity, uterine blood flow and pain in dysmenorrhea ([1]; women with primary dysmenorrhea): inhibit myometrial activity, increase blood flow to the uterus, and relieve the pain
- Adverse effects [2]: palpitations and peripheral tremors
